# Experimental data taken from patent US20260207563A1, “UREA COMPOUNDS AS ACTIVATORS OF POTASSIUM CHANNELS KV7.2/7.3 USEFUL IN THE TREATMENT OF CNS AND PNS DISORDERS” (ANGELINI PHARMA S.P.A., priority 2022, published 2026).
# Assays:
# Type in all cases: cell-based
# [1] = target: T1, heteromeric KV7.3/KV7.5 channel (KCNQ3, KCNQ5) (Homo sapiens, UniProt O43525+Q9NR82); experiment: Automated patch-clamp counter-screening against KV7.3/KV7.5 channel; details: HEK293 cells expressing Kv7.3/KV7.5; class by maximal shift in the Vhalf at 30 μM
# T1 construct: host or cells: HEK293
# Protocol: Assessment of in vitro potency against KV7.3/KV7.5 channels
# Counter-screening was also carried out against the heteromeric KV7.3/KV7.5 channel (KCNQ3, Uniprot ID 043525; KCNQ5, Uniprot ID Q9NR82). The cell line used was a stably transfected HEK293 cell line with constitutive Kv7.3 expression and tetracycline inducible KV7.5 expression supplied by Charles River Laboratories.
# Cells were maintained in the following culture media: • DMEM/F-12 with GlutaMAX™ (Life Technologies 31331-028), • 10% Tet Systems FCS (Clonetech 631106), • 500 μg/ml Geneticin™ selective antibiotic (G418, Invitrogen 1013-027), • 5 μg/ml Blasticidin S HCl (InvivoGen ant-bl-5), and • 100 μg/ml Zeocin (InvivoGen: ant-zn-5).
# (§1) Cell maintenance, preparation, recording conditions and voltage protocols were all identical to those above.
# (§2) Analysis of Data for Assessment of Potency
# (§3) 10 concentrations of test compounds were applied to individual wells in quadruplicate to assess potency as a 1 in 3 dilution series from the maximal concentration of 30 μM. The average shift in the voltage for half activation (Vhalf) for each concentration was used to generate concentration-response curves fitted with a 4-parameter logistic model to estimate the EC50 from the point of inflection of the curve and the maximal shift in the Vhalf from the top of the curve.
# (§4) The lower the EC50 value, the higher the potency of the analyzed compound. The selectivity criteria is assigned on the basis of the maximal shift in the Vhalf at 30 μM. […] In Table 3, ND means that selectivity was not determined.
# [2] = target: T2, homomeric KV7.4 channel (KCNQ4) (Homo sapiens, UniProt P56696); experiment: Automated patch-clamp (Qube) counter-screening assay against KV7.4 channel; details: CHO-K1 cells expressing KV7.4; class by maximal shift in the Vhalf at 30 μM
# T2 construct: host or cells: CHO-K1
# Description: Assessment of In Vitro Potency Against KV7.4 Channels
# A counter-screening assay was also developed on the Qube against the homomeric KV7.4 channel (KCNQ4, Uniprot ID P56696). The cell line used was a stably transfected CHO-K1 with constitutive KV7.4 expression supplied by Charles River Laboratories.
# CHO-K1 cells stably expressing KV7.4 channels were maintained in the following culture media: • Hams F-12 with GlutaMAX™ (Life Technologies 31765027), • 10% Fetal clone 2 serum (Perbio Science SH30066.03), and • 250 μg/ml Geneticin™ selective antibiotic (G418, Invitrogen 1013-027).
# as §1, §2, §3, §4
# [3] = target: T3, heteromeric KV7.2/KV7.3 channels (KCNQ2, KCNQ3) (Homo sapiens, UniProt O43525+O43526); experiment: Automated patch-clamp (Sophion Qube 384) potency assay against KV7.2/KV7.3 channels; details: CHO-K1/Kv7.2/Kv7.3 cells; for EC50: EC50 from concentration-response of shift in Vhalf, 10 concentrations up to 30 μM, read-out: Kv7.2/7.3 EC50; for Kv7.2/7.3 ΔV1/2: maximal shift in the Vhalf from the top of the curve
# T3 construct: expressed in transfected cells; host or cells: CHO-K1
# Description: Assessment of In Vitro Potency Against KV7.2/KV7.3 Channels
# An automated patch-clamp assay on the Sophion Qube 384 was developed for potency testing to identify small molecule activators of heteromeric KV7.2/KV7.3 channels (KCNQ2, Uniprot ID 043526; KCNQ3, Uniprot 043525).
# The cell line used was a stably transfected CHO-K1 cell line with constitutive KV7.2/KV7.3 expression.
# CHO-K1/Kv7.2/Kv7.3 cells were maintained in the following culture media: • DMEM/F-12 with GlutaMAX™ (Gibco 31331-028), • 10% Fetal clone 2 serum (Perbio Science SH30066.03), • 1 mg/ml Geneticin™ selective antibiotic (G418, Invitrogen 1013027), and • 5 μg/ml BlasticidinS HCl (Invivogen Ant-bl-5).
# On the day of the experiment, cells were resuspended in serum free media, counted and diluted to a final concentration of 3.5×10^6 cells per ml of media.
# Cells were then placed onto the Sophion Qube 384 and rested for a minimum of 1 hour.
# The following solutions were used for recording: • extracellular solution (in mM): 145 NaCl, 4 KCl, 1 MgCl2, 2 CaCl2), 10 HEPES, 10 glucose, pH 7.4, 315-320 mOsm. • intracellular solution (in mM): 120 KCl, 5.74 CaCl2), 1.75 MgCl2, 10 EGTA, 10 HEPES, 5 Na2ATP, pH 7.2, adjusted to 315 mOsm with sucrose.
# After establishing the whole-cell configuration, cells were held at −80 mV throughout the experiment. A current-voltage (I-V) protocol stepping from −100 to +20 mV for 1 second was applied to measure Kv7.2/Kv7.3 currents, each step was followed by a 200 ms pulse to 0 mV to measure the tail currents. From the I-V protocol a Boltzmann fit was applied to generate activation curves. Data were sampled at 25 kHz and filtered at 5 kHz (Bessel). Data were produced using multihole QChips. The I-V protocol was applied several times to establish the response in control conditions (typically 0.3% DMSO) and in the presence of the test compound.
# Data were reviewed in Sophion Analyser version 6.5.2 (Sophion Bioscience) for recording quality and filters were applied to remove any failed wells. Leak subtraction was applied to all recordings. Data filters for multihole QChips were typically: seal resistance>4 MΩ, capacitance >20 pF, baseline VHalf between 0 to −40 mV, baseline holding current between −2 to 2 nA, baseline steady state current at 20 mV >4 nA unless otherwise stated.
# as §2, §3, §4
SMILES,Kv7.3/7.5 selectivity criteria [1],Kv7.4 selectivity criteria [2],EC50 [3] [nM],Kv7.2/7.3 ΔV1/2 [3] [mV]
"O=C(NCc1ccnc(OCc2ccccc2)c1)NCC(O)C1(C(F)(F)F)CC1 (racemic) [Compound 5, (±)-1-((2-(Benzyloxy)pyridin-4-yl)methyl)-3-(2-hydroxy-2-(1-(trifluoromethyl)cyclopropyl)ethyl)urea]",A (Selective compounds showed Kv7.4 and/or Kv7.3/7.5 ΔV1/2 equal to or lower than 15 mV (letter A in table 3)),A (Selective compounds showed Kv7.4 and/or Kv7.3/7.5 ΔV1/2 equal to or lower than 15 mV (letter A in table 3)),2390,21.49
"O=C(NCc1ccnc(OCC(F)(F)F)c1)NC1CCc2ccc(F)cc21 (racemic) [Compound 81, (±)-1-(6-Fluoro-2,3-dihydro-1H-inden-1-yl)-3-((2-(2,2,2-trifluoroethoxy)pyridin-4-yl)methyl)urea]",A (Selective compounds showed Kv7.4 and/or Kv7.3/7.5 ΔV1/2 equal to or lower than 15 mV (letter A in table 3)),A (Selective compounds showed Kv7.4 and/or Kv7.3/7.5 ΔV1/2 equal to or lower than 15 mV (letter A in table 3)),310,14.75
"O=C(NCc1ccnc(OCc2ccccc2)c1)Nc1cccc(F)c1 [Compound 1, 1-((2-(Benzyloxy)pyridin-4-yl)methyl)-3-(3-fluorophenyl)urea]",B (Non-selective compounds showed Kv7.4 and/or Kv7.3/7.5 ΔV1/2 higher than 15 mV (letter B in table 3)),B (Non-selective compounds showed Kv7.4 and/or Kv7.3/7.5 ΔV1/2 higher than 15 mV (letter B in table 3)),600,30.51
"O=C(NCc1cccc(F)c1)NCc1ccnc(OCc2ccccc2)c1 [Compound 2, 1-((2-(Benzyloxy)pyridin-4-yl)methyl)-3-(3-fluorobenzyl)urea]",A (Selective compounds showed Kv7.4 and/or Kv7.3/7.5 ΔV1/2 equal to or lower than 15 mV (letter A in table 3)),A (Selective compounds showed Kv7.4 and/or Kv7.3/7.5 ΔV1/2 equal to or lower than 15 mV (letter A in table 3)),966,16.51
"O=C(NCCC1(C(F)(F)F)CC1)NCc1ccnc(OCc2ccccc2)c1 [Compound 3, 1-((2-(Benzyloxy)pyridin-4-yl)methyl)-3-(2-(1-(trifluoromethyl)cyclopropyl)ethyl)urea]",A (Selective compounds showed Kv7.4 and/or Kv7.3/7.5 ΔV1/2 equal to or lower than 15 mV (letter A in table 3)),A (Selective compounds showed Kv7.4 and/or Kv7.3/7.5 ΔV1/2 equal to or lower than 15 mV (letter A in table 3)),472,25.42
"CC(C)(C)[C@H](O)CNC(=O)NCc1ccnc(OCc2ccccc2)c1 [Compound 4, (S)-1-((2-(Benzyloxy)pyridin-4-yl)methyl)-3-(2-hydroxy-3,3-dimethylbutyl)urea]",B (Non-selective compounds showed Kv7.4 and/or Kv7.3/7.5 ΔV1/2 higher than 15 mV (letter B in table 3)),A (Selective compounds showed Kv7.4 and/or Kv7.3/7.5 ΔV1/2 equal to or lower than 15 mV (letter A in table 3)),1700,27.28
"CN(Cc1ccnc(OCC(F)(F)F)c1)C(=O)NCCC1(C(F)(F)F)CC1 [Compound 7, 1-Methyl-1-((2-(2,2,2-trifluoroethoxy)pyridin-4-yl)methyl)-3-(2-(1-(trifluoromethyl)cyclopropyl)ethyl)urea]",A (Selective compounds showed Kv7.4 and/or Kv7.3/7.5 ΔV1/2 equal to or lower than 15 mV (letter A in table 3)),A (Selective compounds showed Kv7.4 and/or Kv7.3/7.5 ΔV1/2 equal to or lower than 15 mV (letter A in table 3)),5130,22.31
